# Reference: patent publication US20140309256A1, “Therapeutic Method” (FibroGen, Inc., priority 2011, published 2014)
# Tests used:
# [1] = tested on: Human subjects with stage 3 or 4 chronic kidney disease; assay: Hemoglobin levels in chronic kidney disease patients treated orally with Compound A; type: in vivo; settings: all groups A-D, oral, 16 or 24 weeks; all p<0.0001; dose-dependent
# Description: No intravenous iron administration was allowed during the treatment, and subjects who had received more than one administration of IV iron within 12 weeks prior to randomization were excluded. […] Treatment was continued for weeks 5 through 16 with dose adjusted every 4 weeks to maintain hemoglobin of 11-13 g/dL (target Hb range). Group A continued dosing three time a week, Group B was switched to twice weekly dosing. Groups C (n=24) received a initial fixed dose of 50 mg, three times a week for 4 weeks and group D (n=24) received an initial fixed dose of 100 mg, three times a week. Treatment was continued for weeks 5 to 24 with dose adjusted to maintain hemoglobin of 10.5-12 g/dL (target Hb range). Hemoglobin and platelet counts were measured every 4 weeks.
# PHD3 = PHD3 (Homo sapiens, UniProt Q9H6Z9); assay: HIF prolyl hydroxylase enzyme assay, PHD3; type: biochemical
# From the text: (§1) Suitable assay methods are well known in the art.
# PHD1 = PHD1 (Homo sapiens, UniProt Q96KS0); assay: HIF prolyl hydroxylase enzyme assay, PHD1; type: biochemical
# From the text: as §1
# [2] = tested on: Human subjects with stage 3 or 4 chronic kidney disease; assay: Platelet counts in chronic kidney disease patients treated orally with Compound A; type: in vivo
# Description: No intravenous iron administration was allowed during the treatment, and subjects who had received more than one administration of IV iron within 12 weeks prior to randomization were excluded.
# Groups A (n=24) and B (n=24) received an initial weight-adjusted dose of 60 mg (for subjects of 40 to 60 kg), 100 mg (for subjects of >60 to 90 kg), or 140 mg (for subjects of >90 to 140 kg), three times a week for 4 weeks. Treatment was continued for weeks 5 through 16 with dose adjusted every 4 weeks to maintain hemoglobin of 11-13 g/dL (target Hb range). Group A continued dosing three time a week, Group B was switched to twice weekly dosing.
# Groups C (n=24) received a initial fixed dose of 50 mg, three times a week for 4 weeks and group D (n=24) received an initial fixed dose of 100 mg, three times a week. Treatment was continued for weeks 5 to 24 with dose adjusted to maintain hemoglobin of 10.5-12 g/dL (target Hb range). Hemoglobin and platelet counts were measured every 4 weeks.
# In a separate analysis of the data from Example 1, all patient data on platelet count over time was combined and stratified into quartiles based on the baseline platelet count. Each quartile had n=24. Quartile 1 included the 24 patients with the lowest baseline platelet count. Quartile 2 included the 24 patients with the next highest baseline platelet count after the patients in quartile 1. Quartile 3 included the 24 patients with the next highest baseline platelet count after the patients in quartile 2. Quartile 4 included the 24 patients with the highest baseline platelet count.
# treated subjects = settings: treatment of anemia with ESA; cited from earlier work
# Chain of PHD3 (Q9H6Z9 whole entry): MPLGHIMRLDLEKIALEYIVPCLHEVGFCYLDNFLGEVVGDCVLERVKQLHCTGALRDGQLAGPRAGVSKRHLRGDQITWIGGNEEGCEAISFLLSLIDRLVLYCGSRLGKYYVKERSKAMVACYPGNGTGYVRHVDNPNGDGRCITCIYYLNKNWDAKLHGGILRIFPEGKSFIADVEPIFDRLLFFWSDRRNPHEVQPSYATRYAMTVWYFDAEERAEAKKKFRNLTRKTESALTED
# Chain of PHD1 (Q96KS0 whole entry): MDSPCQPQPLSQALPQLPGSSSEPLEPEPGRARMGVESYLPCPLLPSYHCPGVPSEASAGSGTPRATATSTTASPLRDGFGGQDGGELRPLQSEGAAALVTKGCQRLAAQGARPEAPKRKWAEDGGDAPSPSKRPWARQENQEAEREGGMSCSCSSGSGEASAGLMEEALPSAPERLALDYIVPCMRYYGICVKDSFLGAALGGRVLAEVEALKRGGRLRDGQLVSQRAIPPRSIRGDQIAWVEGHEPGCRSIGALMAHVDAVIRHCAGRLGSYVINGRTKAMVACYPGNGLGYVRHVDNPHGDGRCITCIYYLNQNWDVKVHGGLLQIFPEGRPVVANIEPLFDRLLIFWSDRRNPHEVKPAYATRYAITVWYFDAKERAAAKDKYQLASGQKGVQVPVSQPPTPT
Compound,"Mean hemoglobin concentrations, end of treatment vs. baseline [1]",IC50 (PHD3) [µM],IC50 (PHD1) [µM],"Mean platelet count change from baseline to end of treatment ([2]; Group A, weight-adjusted dose three times a week, 16 weeks, baseline 267, p<0.0001)","Mean platelet count change from baseline to end of treatment ([2]; Group B, weight-adjusted dose, switched to twice weekly, 16 weeks, baseline 292, p<0.0001)","Mean platelet count change from baseline to end of treatment ([2]; Group C, initial fixed dose 50 mg three times a week, 24 weeks, baseline 255, p=0.89)","Mean platelet count change from baseline to end of treatment ([2]; Group D, initial fixed dose 100 mg three times a week, 24 weeks, baseline 231, p=0.30)","Mean change in platelet count from baseline to end of treatment, combined groups ([2]; week 17, p<0.0001)","Mean change in platelet count from baseline to end of treatment, combined groups ([2]; week 25, p=0.41)","Platelet count over course of treatment, stratified by baseline quartile ([2]; lower 3 quartiles, mean baseline 164.9, 224.8, 272.2 ×10^9/L)","Platelet count over course of treatment, stratified by baseline quartile ([2]; quartile 4 (highest), mean baseline 388.7×10^9/L)",Effect on platelet count in treated subjects (treated subjects)
"Cc1nc(C(=O)NCC(=O)O)c(O)c2ccc(Oc3ccccc3)cc12 [Compound A, [(4-hydroxy-1-methyl-7-phenoxy-isoquinoline-3-carbonyl)-amino]-acetic acid]",increased from the baseline,0.2 to 2,0.2 to 2,−46.55 1×10^9/L,−43.67 1×10^9/L,−1.69 1×10^9/L,−11.88 1×10^9/L,−30.05,−6.94,maintained at (or not significantly increased from) the baseline level,decreased from baseline,
"epoetin beta: erythropoiesis-stimulating agent, recombinant human erythropoietin (rHuEPO)",,,,,,,,,,,,increase platelet count
"epoetin α: erythropoiesis-stimulating agent, recombinant human erythropoietin (rHuEPO)",,,,,,,,,,,,increase platelet count
